# Results reported in US11866433B2, “Diarylthiohydantoin compound as androgen receptor antagonist” (CHIA TAI TIANQING PHARMACEUTICAL GROUP CO., LTD., priority 2017, dated 2024).
# Target: T1, androgen receptor (AR) (Homo sapiens, UniProt P10275)
# T1 sequence (P10275 1-920): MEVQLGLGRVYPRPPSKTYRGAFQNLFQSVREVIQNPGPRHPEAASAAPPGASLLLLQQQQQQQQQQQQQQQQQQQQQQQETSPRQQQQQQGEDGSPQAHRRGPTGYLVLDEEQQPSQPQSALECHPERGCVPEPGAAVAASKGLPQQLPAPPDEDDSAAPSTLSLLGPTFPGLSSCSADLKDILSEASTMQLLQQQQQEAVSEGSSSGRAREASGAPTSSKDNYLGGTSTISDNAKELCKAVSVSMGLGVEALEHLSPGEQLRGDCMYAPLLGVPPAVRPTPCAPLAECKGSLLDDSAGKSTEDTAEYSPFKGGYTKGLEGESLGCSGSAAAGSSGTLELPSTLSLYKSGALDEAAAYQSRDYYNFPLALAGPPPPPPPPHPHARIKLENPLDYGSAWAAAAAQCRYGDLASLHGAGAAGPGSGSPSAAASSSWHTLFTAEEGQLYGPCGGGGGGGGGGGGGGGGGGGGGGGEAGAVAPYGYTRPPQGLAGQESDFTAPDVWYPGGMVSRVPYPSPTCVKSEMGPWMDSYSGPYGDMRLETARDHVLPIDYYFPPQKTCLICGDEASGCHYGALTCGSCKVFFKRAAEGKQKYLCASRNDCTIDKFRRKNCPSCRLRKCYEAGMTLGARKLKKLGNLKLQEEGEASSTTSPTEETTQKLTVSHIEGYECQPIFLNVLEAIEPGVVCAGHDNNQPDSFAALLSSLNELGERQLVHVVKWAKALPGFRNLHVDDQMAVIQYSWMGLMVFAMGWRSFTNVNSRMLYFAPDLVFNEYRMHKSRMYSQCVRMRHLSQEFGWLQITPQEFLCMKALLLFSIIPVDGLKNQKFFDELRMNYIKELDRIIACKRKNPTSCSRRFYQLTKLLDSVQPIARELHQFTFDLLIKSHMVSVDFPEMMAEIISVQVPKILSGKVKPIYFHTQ
# Test: Antagonism of compounds on nuclear translocation of androgen receptor (PathHunter NHR cell lines)
# Assay type: cell-based
# Details: antagonist mode, agonist 6a-Fluorotestosterone 0.06 μM (EC80)
# Procedure: Example 75 Test of Antagonism of Compounds on Nuclear Translocation of Androgen Receptor (AR)
# 1. PathHunter NHR cell lines were recovered and cultured for amplification.
# 2. The cells were inoculated onto a 384-well plate prior to testing, and incubated at 37° C. The serum for culture was filtered with charcoal-dextran to reduce the hormone level therein.
# 3. In the detection of the antagonistic function, a compound was added to the cells and incubated for 60 min. The working concentration of the test compound was diluted from 10 μM at a 3-fold concentration gradient, respectively including: […]. Then, an agonist 6a-Fluorotestosterone 0.06 μM (concentration: EC80, i.e., 80% agonistic compound concentration) was added, and the mixture was incubated at 37° C. or at room temperature for 3-16 h.
# 4. Signal detection: 12.5 μL or 15 μL (50%, v/v) PathHunter detection mixed solution (kit: DiscoverX product catalog number: 93-0001 series) was added, and incubated at room temperature for 1 h. The chemiluminescent signal was read with a PerkinElmer Envision™ instrument.
# 5. Data analysis: The compound activity was analyzed with CBIS data analysis software (ChemInnovation, CA). The calculation formula of the inhibition percent of the antagonist is as follows: IC50 inhibition ratio (%)=[…]×(1−(average RLU value of the test compound−average RLU value of the blank control group)/(average RLU value of EC80 control group−average RLU value of the blank control group)).
row,Compound,IC50 [µM]
1,CC1(C)C(=O)N(c2ccc(C#N)c(C(F)(F)F)c2)C(=S)N1c1ccc2c(=O)n(CC(F)(F)F)ncc2c1 [Compound 6],3.07
2,CCc1cc(=O)n2cc(N3C(=S)N(c4ccc(C#N)c(C(F)(F)F)c4)C(=O)C34CCC4)cc(F)c2n1 [Compound 54],2.5
3,CCc1nc(OCCO)c2cc(N3C(=S)N(c4ccc(C#N)c(C(F)F)c4)C(=O)C3(C)C)cc(F)c2n1 [Compound 50],3.45
4,CCc1nc(OCCO)c2cc(N3C(=S)N(c4ccc(C#N)c(C(F)(F)F)c4)C(=O)C34CCC4)cc(F)c2n1 [Compound 20],1.56
5,CCOc1cc(=O)n2cc(N3C(=S)N(c4cnc(C#N)c(C(F)(F)F)c4)C(=O)C3(C)C)cc(F)c2n1 [Compound 64],2.81
6,CC(F)(F)c1nc(OCCO)c2cc(N3C(=S)N(c4ccc(C#N)c(C(F)(F)F)c4)C(=O)C3(C)C)cc(F)c2n1 [Compound 49],1.43
7,CCc1nc(OCCO)c2cc(N3C(=S)N(c4cnc(C#N)c(C(F)(F)F)c4)C(=O)C34CCC4)cc(F)c2n1 [Compound 25],1.22
8,CCc1nc(OC2CCOCC2)c2cc(N3C(=S)N(c4ccc(C#N)c(C(F)(F)F)c4)C(=O)C3(C)C)cc(F)c2n1 [Compound 19],1.86
9,CC1(C)C(=O)N(c2ccc(C#N)c(C(F)(F)F)c2)C(=S)N1c1cc(F)c2nc(C3CC3)nc(OCCO)c2c1 [Compound 18],2.84
10,CCc1nc2c(F)cc(-n3c(=S)n(-c4ccc(C#N)c(C(F)(F)F)c4)c4nccc(C)c43)cc2c(=O)[nH]1 [Compound 45],2.64
11,CC1(C)C(=O)N(c2cnc(C#N)c(C(F)(F)F)c2)C(=S)N1c1cc(F)c2nc(C(F)F)nc(OCCO)c2c1 [Compound 26],1.71
12,CCc1cc(=O)n2cc(N3C(=S)N(c4ccc(C#N)c(C(F)(F)F)c4)C(=O)C3(C)C)cc(Cl)c2n1 [Compound 61],1.45
13,CC1(C)C(=O)N(c2cnc(C#N)c(C(F)(F)F)c2)C(=S)N1c1cc(F)c2nc(C(F)F)cc(=O)n2c1 [Compound 74],2.96
14,Cc1nc(OCCO)c2cc(N3C(=S)N(c4ccc(C#N)c(C(F)(F)F)c4)C(=O)C3(C)C)ccc2n1 [Compound 9],5.35
15,CCc1nc2ccc(N3C(=S)N(c4ccc(C#N)c(C(F)(F)F)c4)C(=O)C3(C)C)cn2c(=O)c1OCCO [Compound 38],3.58
16,CC1(C)C(=O)N(c2ccc(C#N)c(C(F)(F)F)c2)C(=S)N1c1ccc2nc(C(F)F)nc(OCCO)c2c1 [Compound 15],1.12
17,CCc1nc2c(F)cc(N3C(=S)N(c4ccc(C#N)c(C(F)(F)F)c4)C(=O)C3(C)C)cn2c(=O)c1F [Compound 47],2.57
18,CC1(C)C(=O)N(c2ccc(C#N)c(C(F)(F)F)c2)C(=S)N1c1cc(F)c2nc(OCCO)cc(=O)n2c1 [Compound 67],2.3
19,CCc1cc(=O)n2cc(N3C(=S)N(c4cnc(C#N)c(C(F)(F)F)c4)C(=O)C3(C)C)cc(F)c2n1 [Compound 53],2.11
20,CC1(C)C(=O)N(c2ccc(C#N)c(C(F)(F)F)c2)C(=S)N1c1cc(F)c2nc(C(F)F)cc(=O)n2c1 [Compound 62],1.69
21,CCc1cc(=O)n2cc(N3C(=S)N(c4cnc(C#N)c(Cl)c4)C(=O)C3(C)C)cc(F)c2n1 [Compound 75],0.92
22,CCc1cc(=O)n2cc(N3C(=S)N(c4ccc(C#N)c(C(F)(F)F)c4)C(=O)C3(C)C)cc(OC)c2n1 [Compound 57],5.47
23,CCc1cc(=O)n2cc(N3C(=S)N(c4ccc(C#N)c(F)c4)C(=O)C3(C)C)cc(F)c2n1 [Compound 59],8.92
24,CCc1nc2c(F)cc(N3C(=S)N(c4ccc(C#N)c(C(F)(F)F)c4)C(=O)C3(C)C)cn2c(=O)c1OCC(=O)NC [Compound 42],2.2
25,COc1nc(OCCO)c2cc(N3C(=S)N(c4ccc(C#N)c(C(F)(F)F)c4)C(=O)C3(C)C)cc(F)c2n1 [Compound 71],2.76
26,CCc1cc(=O)n2cc(-n3c(=S)n(-c4ccc(C#N)c(C(F)(F)F)c4)c4nccc(C)c43)cc(F)c2n1 [Compound 66],7.12

row,Compound,IC50 [µM]
1,CC1(C)C(=O)N(c2ccc(C#N)c(C(F)(F)F)c2)C(=S)N1c1ccc2nc(C3CC3)nc(OCCO)c2c1 [Compound 11],1.14
2,CCc1nc(OC2COC[C@H]2O)c2cc(N3C(=S)N(c4ccc(C#N)c(C(F)(F)F)c4)C(=O)C3(C)C)cc(F)c2n1 (stereo partly drawn) [Compound 44],3.76
3,CCc1nc2c(F)cc(N3C(=S)N(c4ccc(C#N)c(C(F)(F)F)c4)C(=O)C3(C)C)cn2c(=O)c1OC [Compound 34],3.23
4,CCc1nc2ccc(-n3c(=S)n(-c4ccc(C#N)c(C(F)(F)F)c4)c4nccc(C)c43)cc2c(=O)[nH]1 [Compound 56],2.86
5,CCc1nc2c(F)cc(N3C(=S)N(c4ccc(C#N)c(C(F)(F)F)c4)C(=O)C3(C)C)cn2c(=O)c1O [Compound 39],5.95
6,CCc1nc(OCC(N)=O)c2cc(N3C(=S)N(c4ccc(C#N)c(C(F)(F)F)c4)C(=O)C3(C)C)cc(F)c2n1 [Compound 32],6.76
7,CCc1nc(OCCO)c2cc(N3C(=S)N(c4ccc(C#N)c(C(F)(F)F)c4)C(=O)C34CCC4)ccc2n1 [Compound 17],0.65
8,CC1(C)C(=O)N(c2ccc(C#N)c(C(F)(F)F)c2)C(=S)N1c1ccc2c(=O)n(CC(F)(F)F)cnc2c1 [Compound 5],3.65
9,CCc1cc(=O)n2cc(N3C(=S)N(c4ccc(C#N)c(C(F)(F)F)c4)C(=O)C3(C)C)ccc2n1 [Compound 30],2.54
10,CCc1nc(-c2cn[nH]c2)c2cc(N3C(=S)N(c4ccc(C#N)c(C(F)(F)F)c4)C(=O)C3(C)C)cc(F)c2n1 [Compound 51],0.64
11,CCc1nc(OCCN(C)C)c2cc(N3C(=S)N(c4ccc(C#N)c(C(F)(F)F)c4)C(=O)C3(C)C)cc(F)c2n1 [Compound 24],3.1
12,CCc1nc(OCCO)c2cc(N3C(=S)N(c4ccc(C#N)c(C(F)F)c4)C(=O)C3(C)C)ccc2n1 [Compound 48],3.67
13,CC1(C)C(=O)N(c2ccc(C#N)c(C(F)(F)F)c2)C(=S)N1c1ccc2nc(OCCO)ncc2c1 [Compound 14],4.9
14,CCc1nc(OCC(=O)NC)c2cc(N3C(=S)N(c4ccc(C#N)c(C(F)(F)F)c4)C(=O)C3(C)C)cc(F)c2n1 [Compound 28],8.88
15,COCc1cc(=O)n2cc(N3C(=S)N(c4ccc(C#N)c(C(F)(F)F)c4)C(=O)C3(C)C)cc(F)c2n1 [Compound 69],4
16,CCOc1cc(=O)n2cc(N3C(=S)N(c4ccc(C#N)c(C(F)(F)F)c4)C(=O)C3(C)C)cc(F)c2n1 [Compound 55],1.4
17,CC1(C)C(=O)N(c2ccc(C#N)c(C(F)(F)F)c2)C(=S)N1c1cc(F)c2ncnc(OCCO)c2c1 [Compound 13],6.02
18,COc1nc(OCCO)c2cc(N3C(=S)N(c4cnc(C#N)c(C(F)(F)F)c4)C(=O)C3(C)C)cc(F)c2n1 [Compound 73],2.13
19,COCCOc1cc(=O)n2cc(N3C(=S)N(c4ccc(C#N)c(C(F)(F)F)c4)C(=O)C3(C)C)cc(F)c2n1 [Compound 65],2.09
20,CCOc1nc(OCCO)c2cc(N3C(=S)N(c4cnc(C#N)c(C(F)(F)F)c4)C(=O)C3(C)C)cc(F)c2n1 [Compound 72],2.41
21,CCc1nc(OC2COC[C@@H]2O)c2cc(N3C(=S)N(c4ccc(C#N)c(C(F)(F)F)c4)C(=O)C3(C)C)cc(F)c2n1 (stereo partly drawn) [Compound 46],3.08
22,CC1(C)C(=O)N(c2ccc(C#N)c(C(F)(F)F)c2)C(=S)N1c1cc(F)c2nc(C(F)F)nc(OCCO)c2c1 [Compound 21],1.89
23,CC1(C)C(=O)N(c2ccc(C#N)c(C(F)(F)F)c2)C(=S)N1c1ccc2ncnc(OCCO)c2c1 [Compound 12],3.26
24,CCc1nc(-c2cc[nH]n2)c2cc(N3C(=S)N(c4ccc(C#N)c(C(F)(F)F)c4)C(=O)C3(C)C)cc(F)c2n1 [Compound 52],1.23
25,CCOc1nc(OCCO)c2cc(N3C(=S)N(c4ccc(C#N)c(C(F)(F)F)c4)C(=O)C3(C)C)cc(F)c2n1 [Compound 70],4.27
